One may read the IC50 as the concentration at which inhibition is half-maximal. For orientation: inhibition means the percentage by which the read-out fell short of the control. A low value points to little suppression.

Test [1] in a line: Inhibition of rabbit corpus cavernosum PDE6. The arrangement: species or system Oryctolagus cuniculus.
Test [2] has as its target cGMP-specific 3',5'-cyclic phosphodiesterase (Homo sapiens) (UniProt O76074). Description: Inhibition of PDE5A1 at 10 ug/mL.
The target in test [3] is cGMP-specific 3',5'-cyclic phosphodiesterase (Bos taurus, UniProt Q28156). Description: Inhibition of bovine platelet PDE5.
Test [4] deals with Phosphodiesterase 4 (Homo sapiens, UniProt P27815+Q08499+Q07343+Q08493). Description: Inhibition of human neutrophil PDE4. Format: protein assay.

`COc1ccc(C2CNC(=O)C2)cc1OC1CCCC1` (configuration not stated) [ROLIPRAM] came in with an IC50 in test [1] greater than 10 µM.

`COc1ccc(/C=C/C(=O)c2c3c(c(OC)c4c2OCO4)CN(C)CC3)c(OC)c1OC` displayed an inhibition in test [2] of 37.1%.

For `COC(=O)C[N+]1(C)CCc2c(c(OC)c3c(c2C(=O)/C=C/c2ccc(OC)cc2OC)OCO3)C1` (configuration not stated), the inhibition in test [2] was found to be 18.3%.

Take `COc1ccc(/C=C/C(=O)c2c3c(c(OC)c4c2OCO4)CN(C)CC3)c(OC)c1`: the inhibition in test [2] was 35.1%.

`COc1ccc(OC)c(/C=C/C(=O)c2ccc(OC)c(OC)c2)c1` yielded an inhibition in test [2] of 47.3%.

In test [2], `COc1ccc(/C=C/C(=O)c2cc(OC)ccc2OC)cc1` came in with an inhibition of 25.6%.

Take `COc1ccc(C(=O)/C=C/c2cc(Cl)ccc2Cl)c(OC)c1`: the inhibition in test [2] amounted to 39.5%.

The compound `COc1ccc(/C=C/C(=O)c2cc(OC)c(OC)cc2CCNC(C)=O)c(OC)c1` returned an inhibition in test [2] of 45.5%.

On to `CCCc1nn(C)c2c(=O)[nH]c(-c3cc(S(=O)(=O)N4CCN(C)CC4)ccc3OCC)nc12`, for which, in test [1], the IC50 turned out to be 0.1 µM.

As to `COc1ccc(OC)c(/C=C/C(=O)c2cc(OC)c(C)cc2OC)c1`, in test [2], the inhibition was determined as 20.2%.

Turning to `COc1cccc(/C=C/C(=O)c2c3c(c(OC)c4c2OCO4)CN(C)CC3)c1OC`, in test [2], the inhibition was 43.9%.

On to `COc1cccc(/C=C/C(=O)c2c3c(c(OC)c4c2OCO4)CN(C)CC3)c1`, for which the IC50 was greater than 10 µM in test [1], 6.2 µM in test [3] and greater than 10 µM in test [4]. In test [2], the inhibition was determined as 64.8%.

As for `COc1ccc(/C=C/C(=O)c2c(O)cc(OC)c(OC)c2OC)c(OC)c1`, in test [2], the inhibition is 35.7%.

Regarding `COc1c2c(c(C(=O)/C=C/c3ccc(Cl)cc3Cl)c3c1OCO3)CCN(C)C2`, the inhibition in test [2] is 8.17%.

For `COc1cc(CCNC(C)=O)c(C(=O)/C=C/c2cccc(OC)c2OC)cc1OC`, the inhibition in test [2] is 27.7%.

`COc1ccc(C(=O)/C=C/c2ccc(OC)c(OC)c2)c(O)c1`: the inhibition in test [2] turned out to be 23.8%.

`COc1ccc(OC)c(/C=C/C(=O)c2c3c(c(OC)c4c2OCO4)CN(C)CC3)c1` had an inhibition in test [2] of 45.5%.

`COc1ccc(OC)c(/C=C/C(=O)c2ccc(SC)cc2)c1`: the inhibition in test [2] was determined as 26.6%.

`COc1ccc(C(=O)/C=C/c2ccccc2OC)c(OC)c1`: in test [2], the inhibition amounted to 43.1%.

In turn, `COc1ccc(/C=C/C(=O)c2cc(Cl)ccc2OC)cc1OC` gave an inhibition in test [2] of 3.5%.

In test [2], `COc1ccccc1/C=C/C(=O)c1cc(OC)c(OC)cc1CCNC(C)=O` had an inhibition of 19.9%.

With `COc1ccc(OC)c(C(=O)/C=C/c2ccc(OC)c(OC)c2)c1`, the half-maximal inhibitory concentration (IC50) is greater than 10 µM in test [1], 7 µM in test [3] and 8.2 µM in test [4]. This compound also returned an inhibition in test [2] of 66.1%.

In turn, `COc1ccc(C(=O)/C=C/c2cccc(OC)c2OC)c(OC)c1` gave an inhibition in test [2] of 46.7%.

The compound `COc1ccc(/C=C/C(=O)c2c3c(c(OC)c4c2OCO4)CN(C)CC3)cc1` returned an inhibition in test [2] of 31.8%.

On to `COc1ccc(C(=O)/C=C/c2cc(OC)c(OC)cc2OC)c(OC)c1`, for which the IC50 in test [1] was greater than 10 µM; in test [3] it was 1.8 µM; in test [4], greater than 10 µM. In test [2], the inhibition stood at 65.9%.

Take `COc1ccc(/C=C/C(=O)c2c(OCc3ccccc3)cc(OC)c(OC)c2OC)cc1OC`: the IC50 in test [1] is greater than 10 µM; in test [3], 5.9 µM; in test [4] it was 2.3 µM. The inhibition in test [2] is 77.7%.

In turn, `COc1ccc(OC)c(C(=O)/C=C/c2cc(OC)c(C)cc2OC)c1` had an inhibition in test [2] of 24.9%.

Consider `COc1ccc(OC)c(/C=C/C(=O)c2ccc(OC)cc2OC)c1`, for which the values for the IC50 in test [1], in test [3] and in test [4] were greater than 10 µM, 6 µM and 4.9 µM, respectively. In addition, the inhibition in test [2] is 58.7%.

For the compound `COC(=O)C[N+]1(C)CCc2c(cc3c(c2C(=O)/C=C/c2cc(OC)ccc2OC)OCO3)C1` (configuration not stated), in test [2], the inhibition was 7.2%.

For the compound `COc1ccc(OC)c(/C=C/C(=O)c2cc(OC)c(OC)cc2CCNC(C)=O)c1`, the inhibition in test [2] turned out to be 47.4%.

`COc1ccc(OC)c(/C=C/C(=O)c2ccc(Cl)cc2)c1` came in with an inhibition in test [2] of 8.1%.

Compound `CCCOc1ccccc1-c1nc2[nH]nnc2c(=O)[nH]1` [ZAPRINAST] returned an IC50 in test [1] of 0.4 µM.

The values are drawn from ChEMBL document CHEMBL2029321, “Identification of chalcones as potent and selective PDE5A1 inhibitors” (Bioorg Med Chem Lett, 2012).
